Columns and labels:
Type in all cases: cell-based, human
[1] = system: HaCaT cells; assay: MTT assay for cell viability; conditions: for sensitivity of cells to glucocorticoid treatment (cell proliferation): normal HaCaT cells compared to cancerous PM1 and Met4 cells
[2] = system: IL-1β mRNA; assay: qPCR analysis of LPS-induced IL-1β mRNA; conditions: HaCat cells, LPS-induced inflammation, FIG. 5
From the text: qPCR analysis is shown FIG. 5.

[3] = system: Met4 cells; assay: MTT assay for cell viability; conditions: cancerous Met4 cells, range of concentrations, FIG. 2
[4] = system: PM1 cells; assay: MTT assay for cell viability; conditions: cancerous PM-1 cells, range of concentrations, FIG. 2

Structure (SMILES) | sensitivity of cells to glucocorticoid treatment (cell proliferation) [1] | LPS-induced increase of inflammatory cytokine IL-1β [2] | potency against cell proliferation compared with cortisol ([1]; normal HaCaT cells, range of concentrations, FIG. 2) | potency against cell proliferation compared with cortisol [3] | potency against cell proliferation compared with cortisol [4]
C[C@]12CCC(=O)C=C1CC[C@@H]1[C@@H]2[C@@H](O)C[C@@]2(C)[C@H]1CC[C@]2(O)C(=O)CO [cortisol, reference compound] | more sensitive | significantly suppressed | – | – | –
C[C@]12CCC(=O)C=C1CC[C@@H]1[C@@H]2[C@@H](F)C[C@@]2(C)[C@H]1CC[C@]2(O)C(=O)CO [F-MOD, 11-deoxyfluorocortisol] | more sensitive | significantly suppressed | at least as powerful as the original cortisol | at least as powerful as the original cortisol | at least as powerful as the original cortisol if not stronger
